Activity calls are given as the source filed them. No cut-off for these calls is given here.
Columns and labels:
Details in all cases: time 21.0 day
[1] = system: Leishmania infantum; test: Antileishmanial activity against Leishmania infantum infected in BALB/c mouse model of cutaneous leishmaniasis assessed as footpad lesion development at 50 mg/kg/day, ID administered for 21 days and measured after 2 weeks by Giemsa staining based analysis (reference value: 1.61 +/- 0.03); type: functional
[2] = system: Leishmania infantum; test: Antileishmanial activity against Leishmania infantum infected in BALB/c mouse model of cutaneous leishmaniasis assessed as footpad lesion development at 50 mg/kg/day, ID administered for 21 days and measured after 4 weeks by Giemsa staining based analysis (reference value: 1.90 +/- 0.03); type: functional
[3] = system: Leishmania infantum; test: Antileishmanial activity against Leishmania infantum infected in BALB/c mouse model of cutaneous leishmaniasis assessed as footpad lesion development at 50 mg/kg/day, ID administered for 21 days and measured after 6 weeks by Giemsa staining based analysis (reference value: 2.40 +/- 0.03); type: functional
[4] = system: Leishmania infantum; test: Antileishmanial activity against Leishmania infantum infected in BALB/c mouse model of cutaneous leishmaniasis assessed as footpad lesion development at 50 mg/kg/day, ID administered for 21 days and measured after 8 weeks by Giemsa staining based analysis (reference value: 3.13 +/- 0.03); type: functional
[5] = system: Leishmania infantum; test: Antileishmanial activity against Leishmania infantum infected in BALB/c mouse model of cutaneous leishmaniasis assessed as footpad lesion development at 50 mg/kg/day, ID administered for 21 days and measured after 10 weeks by Giemsa staining based analysis (reference value: 3.40 +/- 0.03); type: functional
[6] = system: Leishmania infantum; test: Antileishmanial activity against Leishmania infantum infected in BALB/c mouse model of cutaneous leishmaniasis assessed as footpad lesion development at 50 mg/kg/day, ID administered for 21 days and measured after 12 weeks by Giemsa staining based analysis (reference value: 3.61 +/- 0.03); type: functional
[7] = system: Leishmania infantum; test: Antileishmanial activity against Leishmania infantum infected in BALB/c mouse model of cutaneous leishmaniasis assessed as footpad lesion development at 50 mg/kg/day, ID administered for 21 days and measured after 14 weeks by Giemsa staining based analysis (reference value: 3.88 +/- 0.03); type: functional
[8] = system: Leishmania infantum; test: Antileishmanial activity against Leishmania infantum infected in BALB/c mouse model of cutaneous leishmaniasis assessed as footpad lesion development at 50 mg/kg/day, ID administered for 21 days and measured after 16 weeks by Giemsa staining based analysis (reference value: 4.20 +/- 0.03); type: functional
[9] = system: Leishmania infantum; test: Antileishmanial activity against Leishmania infantum infected in BALB/c mouse model of cutaneous leishmaniasis assessed as footpad lesion development at 50 mg/kg/day, ID administered for 21 days and measured after 18 weeks by Giemsa staining based analysis (reference value: 4.42 +/- 0.03); type: functional
[10] = system: Leishmania infantum; test: Antileishmanial activity against Leishmania infantum infected in BALB/c mouse model of cutaneous leishmaniasis assessed as footpad lesion development at 50 mg/kg/day, ID administered for 21 days and measured after 20 weeks by Giemsa staining based analysis (reference value: 4.54 +/- 0.04); type: functional
[11] = system: Leishmania infantum; test: Antileishmanial activity against Leishmania infantum infected in BALB/c mouse model of cutaneous leishmaniasis assessed as footpad lesion development at 50 mg/kg/day, ID administered for 21 days and measured after 22 weeks by Giemsa staining based analysis (reference value: 4.71 +/- 0.04); type: functional
[12] = system: Leishmania infantum; test: Antileishmanial activity against Leishmania infantum infected in BALB/c mouse model of cutaneous leishmaniasis assessed as footpad lesion development at 50 mg/kg/day, ID administered for 21 days and measured after 24 weeks by Giemsa staining based analysis (reference value: 4.90 +/- 0.02); type: functional
[13] = system: Leishmania infantum; test: Antileishmanial activity against Leishmania infantum infected in BALB/c mouse model of cutaneous leishmaniasis assessed as footpad lesion development at 50 mg/kg/day, ID administered for 21 days and measured after 26 weeks by Giemsa staining based analysis (reference value: 4.91 +/- 0.01); type: functional
[14] = system: Leishmania infantum; test: Antileishmanial activity against Leishmania infantum infected in BALB/c mouse model of cutaneous leishmaniasis assessed as footpad lesion development at 50 mg/kg/day, ID administered for 21 days and measured after 28 weeks by Giemsa staining based analysis (reference value: 4.92 +/- 0.01); type: functional
[15] = system: Leishmania infantum; test: Antileishmanial activity against Leishmania infantum infected in BALB/c mouse model of cutaneous leishmaniasis assessed as footpad lesion development at 50 mg/kg/day, ID administered for 21 days and measured after 30 weeks by Giemsa staining based analysis (reference value: 4.92 +/- 0.01); type: functional
[16] = system: Leishmania infantum; test: Antileishmanial activity against Leishmania infantum infected in BALB/c mouse model of cutaneous leishmaniasis assessed as footpad lesion development at 50 mg/kg/day, ID administered for 21 days and measured after 32 weeks by Giemsa staining based analysis (reference value: 4.91 +/- 0.01); type: functional
[17] = system: Leishmania infantum; test: Antileishmanial activity against Leishmania infantum infected in BALB/c mouse model of visceral leishmaniasis assessed as footpad lesion development at 50 mg/kg/day, IM administered for 21 days and measured after 1 week by Giemsa staining based analysis (reference value: 30.43 +/- 0.60); type: functional
[18] = system: Leishmania infantum; test: Antileishmanial activity against Leishmania infantum infected in BALB/c mouse model of visceral leishmaniasis assessed as footpad lesion development at 50 mg/kg/day, IM administered for 21 days and measured after 2 weeks by Giemsa staining based analysis (reference value: 29.73 +/- 0.63); type: functional
[19] = system: Leishmania infantum; test: Antileishmanial activity against Leishmania infantum infected in BALB/c mouse model of visceral leishmaniasis assessed as footpad lesion development at 50 mg/kg/day, IM administered for 21 days and measured after 3 weeks by Giemsa staining based analysis (reference value: 28.94 +/- 0.59); type: functional
[20] = system: Leishmania infantum; test: Antileishmanial activity against Leishmania infantum infected in BALB/c mouse model of visceral leishmaniasis assessed as footpad lesion development at 50 mg/kg/day, IM administered for 21 days and measured after 4 weeks by Giemsa staining based analysis (reference value: 28.01 +/- 0.65); type: functional
[21] = system: Leishmania infantum; test: Antileishmanial activity against Leishmania infantum infected in BALB/c mouse model of visceral leishmaniasis assessed as footpad lesion development at 50 mg/kg/day, IM administered for 21 days and measured after 5 weeks by Giemsa staining based analysis (reference value: 27.04 +/- 0.65); type: functional
[22] = system: Leishmania infantum; test: Antileishmanial activity against Leishmania infantum infected in BALB/c mouse model of visceral leishmaniasis assessed as footpad lesion development at 50 mg/kg/day, IM administered for 21 days and measured after 6 weeks by Giemsa staining based analysis (reference value: 25.81 +/- 0.84); type: functional
[23] = system: Leishmania infantum; test: Antileishmanial activity against Leishmania infantum infected in BALB/c mouse model of visceral leishmaniasis assessed as footpad lesion development at 50 mg/kg/day, IM administered for 21 days and measured after 7 weeks by Giemsa staining based analysis (reference value: 24.85 +/- 0.88); type: functional
[24] = system: Leishmania infantum; test: Antileishmanial activity against Leishmania infantum infected in BALB/c mouse model of visceral leishmaniasis assessed as footpad lesion development at 50 mg/kg/day, IM administered for 21 days and measured after 8 weeks by Giemsa staining based analysis (reference value: 23.84 +/- 0.93); type: functional
[25] = system: Leishmania infantum; test: Antileishmanial activity against Leishmania infantum infected in BALB/c mouse model of visceral leishmaniasis assessed as footpad lesion development at 50 mg/kg/day, IM administered for 21 days and measured after 9 weeks by Giemsa staining based analysis (reference value: 22.75 +/- 0.71); type: functional
[26] = system: Leishmania infantum; test: Antileishmanial activity against Leishmania infantum infected in BALB/c mouse model of visceral leishmaniasis assessed as footpad lesion development at 50 mg/kg/day, IM administered for 21 days and measured after 10 weeks by Giemsa staining based analysis (reference value: 21.58 +/- 0.74); type: functional
[27] = system: Leishmania infantum; test: Antileishmanial activity against Leishmania infantum infected in BALB/c mouse model of visceral leishmaniasis assessed as footpad lesion development at 50 mg/kg/day, IM administered for 21 days and measured after 11 weeks by Giemsa staining based analysis (reference value: 20.71 +/- 0.48); type: functional
[28] = system: Leishmania infantum; test: Antileishmanial activity against Leishmania infantum infected in BALB/c mouse model of visceral leishmaniasis assessed as parasite growth in liver at 50 mg/kg/day, IM administered for 21 days; type: functional, organism-based
[29] = system: Leishmania infantum; test: Antileishmanial activity against Leishmania infantum infected in BALB/c mouse model of visceral leishmaniasis assessed as parasite growth in spleen at 50 mg/kg/day, IM administered for 21 days; type: functional, organism-based
[30] = system: Leishmania infantum; test: Antileishmanial activity against Leishmania infantum infected in BALB/c mouse model of cutaneous leishmaniasis assessed as parasite growth in liver at 50 mg/kg/day, ID administered for 21 days; type: functional, organism-based
[31] = system: Leishmania infantum; test: Antileishmanial activity against Leishmania infantum infected in BALB/c mouse model of cutaneous leishmaniasis assessed as parasite growth in spleen at 50 mg/kg/day, ID administered for 21 days; type: functional, organism-based
[32] = system: Leishmania infantum; test: Antileishmanial activity against Leishmania infantum infected in BALB/c mouse model of cutaneous leishmaniasis assessed as parasite growth in foodpad at 50 mg/kg/day, ID administered for 21 days; type: functional, organism-based

Meglumine antimoniate
Activity [1]: 1.56 | Activity [2]: 1.87 | Activity [3]: 2.39 | Activity [4]: 3.09 | Activity [5]: 3.4 | Activity [6]: 3.61 | Activity [7]: 3.84 | Activity [8]: 4.2 | Activity [9]: 4.42 | Activity [10]: 4.53 | Activity [11]: 4.69 | Activity [12]: 4.9 | Activity [13]: 4.69 | Activity [14]: 3.49 | Activity [15]: 2.16 | Activity [16]: 1.7 | Activity [17]: 30.8 | Activity [18]: 29.4 | Activity [19]: 28.5 | Activity [20]: 27.4 | Activity [21]: 26.3 | Activity [22]: 25.3 | Activity [23]: 26.7 | Activity [24]: 27.7 | Activity [25]: 28.7 | Activity [26]: 29.3 | Activity [27]: 30.3 | Activity [28]: Active | Activity [29]: Active | Activity [30]: Active | Activity [31]: Active | Activity [32]: Active

— ChEMBL document CHEMBL5352486, “Design, synthesis, in vitro - In vivo biological evaluation of novel thiazolopyrimidine compounds as antileishmanial agent with PTR1 inhibition” (Eur J Med Chem, 2023)
